Measured values taken from US20240299559A1, “COMPOUNDS THAT MEDIATE PROTEIN DEGRADATION AND METHODS OF USE THEREOF” (Monte Rosa Therapeutics, Inc., priority 2021, published 2024).

Experiments:
[1] = target: CRBN-DDB1 (Homo sapiens, UniProt Q96SW2); experiment: Compound binding to CRBN by HTRF assay; settings: CRBN-DDB1 2.5 nM, Cy5-Thalidomide 100 nM probe; Ki from geometric mean of IC50 by Cheng-Prustoff transformation
In short: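 HTRF competition used 2.5 nM His-tagged CRBN-DDB1, anti-His terbium cryptate and 100 nM Cy5-thalidomide probe in 20 mM HEPES, 20 mM NaCl, 0.2 mM TCEP, 0.2 mM EDTA, 0.005% Tween20. Compounds ran as 10-point 1:3 series for 30 min at ambient temperature, with the 665/620 nm signal normalized to lenalidomide and DMSO controls. Ki came from geometric-mean IC50 by Cheng-Prusoff.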

[2] = target: T1, CDK2 (Homo sapiens, UniProt P24941); experiment: CDK2 HiBiT assay (degradation, Dmax); format: cell-based; settings: HEK293 clonal lines with CRISPR KI HiBiT tag on CDK2, stably expressing LgBiT; 24 hours incubation
T1 construct: HEK293 clonal lines with CRISPR KI HiBiT tag on CDK2 proteins; host or cells: HEK293 clonal line with CRISPR knock-in HiBiT on CDK2, stably expressing LgBiT
In short: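 HEK293 with endogenous HiBiT-tagged CDK2 and stable LgBiT, 5000 cells/well, treated 24 h at 37 °C (compound source plate 30 μM). Luminescence after HiBiT lysis reagent 15 min, normalized to plate controls; 3-parameter logistic fit (Hill slope 1) gives EC50 and Dmax.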

CRBN-DDB1, sequence (Q96SW2 whole entry): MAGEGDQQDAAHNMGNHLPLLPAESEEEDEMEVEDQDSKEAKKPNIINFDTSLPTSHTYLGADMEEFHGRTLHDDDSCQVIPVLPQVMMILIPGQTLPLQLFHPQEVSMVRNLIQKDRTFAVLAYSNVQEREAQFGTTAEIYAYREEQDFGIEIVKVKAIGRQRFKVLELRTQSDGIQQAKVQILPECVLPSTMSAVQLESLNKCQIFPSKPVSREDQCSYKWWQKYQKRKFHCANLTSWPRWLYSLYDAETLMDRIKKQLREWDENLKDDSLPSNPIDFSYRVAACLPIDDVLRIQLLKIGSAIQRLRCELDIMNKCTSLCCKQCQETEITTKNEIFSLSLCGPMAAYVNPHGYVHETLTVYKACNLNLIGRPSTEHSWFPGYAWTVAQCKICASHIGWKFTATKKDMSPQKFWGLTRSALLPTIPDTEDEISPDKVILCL
CRBN-DDB1, sequence (Q16531 whole entry partner): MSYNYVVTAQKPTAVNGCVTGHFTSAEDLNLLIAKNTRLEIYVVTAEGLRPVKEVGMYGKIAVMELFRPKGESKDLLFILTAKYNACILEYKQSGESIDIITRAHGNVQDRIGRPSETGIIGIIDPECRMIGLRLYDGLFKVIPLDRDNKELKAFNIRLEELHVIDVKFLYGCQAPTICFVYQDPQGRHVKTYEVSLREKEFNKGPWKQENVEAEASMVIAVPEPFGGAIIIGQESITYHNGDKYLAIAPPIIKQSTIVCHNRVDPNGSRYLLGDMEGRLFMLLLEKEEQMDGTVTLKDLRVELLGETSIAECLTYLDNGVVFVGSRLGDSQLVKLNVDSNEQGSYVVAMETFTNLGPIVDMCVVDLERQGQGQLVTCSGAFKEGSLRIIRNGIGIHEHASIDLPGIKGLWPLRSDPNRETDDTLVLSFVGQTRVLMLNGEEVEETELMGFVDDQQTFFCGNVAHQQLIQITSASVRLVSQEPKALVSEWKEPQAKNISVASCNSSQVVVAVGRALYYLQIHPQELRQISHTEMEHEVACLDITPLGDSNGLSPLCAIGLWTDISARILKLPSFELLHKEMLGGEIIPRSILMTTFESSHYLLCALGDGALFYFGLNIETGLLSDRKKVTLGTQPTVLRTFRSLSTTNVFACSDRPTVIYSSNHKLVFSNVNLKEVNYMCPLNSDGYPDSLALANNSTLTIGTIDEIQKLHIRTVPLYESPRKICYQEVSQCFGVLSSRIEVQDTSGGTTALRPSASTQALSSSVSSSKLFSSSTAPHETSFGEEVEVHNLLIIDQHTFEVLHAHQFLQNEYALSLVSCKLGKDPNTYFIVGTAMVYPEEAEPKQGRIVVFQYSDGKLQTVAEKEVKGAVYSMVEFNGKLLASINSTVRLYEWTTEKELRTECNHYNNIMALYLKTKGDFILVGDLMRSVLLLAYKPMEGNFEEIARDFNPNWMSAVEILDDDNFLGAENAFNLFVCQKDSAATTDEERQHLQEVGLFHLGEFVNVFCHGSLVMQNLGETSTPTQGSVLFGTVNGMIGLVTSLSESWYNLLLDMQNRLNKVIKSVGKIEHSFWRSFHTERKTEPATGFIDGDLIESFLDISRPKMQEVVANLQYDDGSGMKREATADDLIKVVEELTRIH

Row | SMILES | Ki [1] [nM] | Dmax [2] [%]
1 | O=C1CCC(N2Cc3ccc(CNC(=O)OCc4ccc(OC5CCOCC5)cc4)cc3C2=O)C(=O)N1 (centres unmarked) [Compound 3, 4-((tetrahydro-2H-pyran-4-yl)oxy)benzyl((2-(2,6-dioxopiperidin-3-yl)-3-oxoisoindolin-5-yl)methyl)carbamate] | 100 to 1000 | 10 to 50
2 | Cc1ccc(COC(=O)NCc2ccc3c(c2)C(=O)N(C2CCC(=O)NC2=O)C3)cc1 (centres unmarked) [Compound 29, (4-methylphenyl)methyl N-{[2-(2,6-dioxopiperidin-3-yl)-3-oxo-2,3-dihydro-1H-isoindol-5-yl]methyl}carbamate] | ≤ 100 | ≤ 10
3 | O=C1CCC(N2Cc3ccc(CNC(=O)OCc4ccc(Cl)cc4)cc3C2=O)C(=O)N1 (centres unmarked) [Compound 24, (4-chlorophenyl)methyl N-{[2-(2,6-dioxopiperidin-3-yl)-3-oxo-2,3-dihydro-1H-isoindol-5-yl]methyl}carbamate] | ≤ 100 | ≤ 10
4 | CC(C)COc1ccc(COC(=O)NCc2ccc3c(c2)C(=O)N(C2CCC(=O)NC2=O)C3)cc1 (centres unmarked) [Compound 46, [4-(2-methylpropoxy)phenyl]methyl N-{[2-(2,6-dioxopiperidin-3-yl)-3-oxo-2,3-dihydro-1H-isoindol-5-yl]methyl}carbamate] | 100 to 1000 | 10 to 50
5 | COc1ccc(COC(=O)NCc2ccc3c(c2)C(=O)N(C2CCC(=O)NC2=O)C3)cc1 (centres unmarked) [Compound 25, (4-methoxyphenyl)methyl N-{[2-(2,6-dioxopiperidin-3-yl)-3-oxo-2,3-dihydro-1H-isoindol-5-yl]methyl}carbamate] | ≤ 100 | 10 to 50
6 | O=C1CCC(N2Cc3ccc(CNC(=O)OCc4ccc(OC(F)F)cc4)cc3C2=O)C(=O)N1 (centres unmarked) [Compound 33, [4-(difluoromethoxy)phenyl]methyl N-{[2-(2,6-dioxopiperidin-3-yl)-3-oxo-2,3-dihydro-1H-isoindol-5-yl]methyl}carbamate] | ≤ 100 | 10 to 50
7 | O=C1CCC(N2Cc3ccc(CNC(=O)OCc4ccc(OCC5CC5)cc4)cc3C2=O)C(=O)N1 (centres unmarked) [Compound 40, [4-(cyclopropylmethoxy)phenyl]methyl N-{[2-(2,6-dioxopiperidin-3-yl)-3-oxo-2,3-dihydro-1H-isoindol-5-yl]methyl}carbamate] | ≤ 100 | 10 to 50
